Where two headings read alike, the source gives them in different places.

One assay addresses mGluR3 (Homo sapiens, UniProt Q14832). The note with it: read-out: IC50 against mGluR3; cited from earlier work.
The target in another assay is mGluR2 (Homo sapiens, UniProt Q14416). The note with it: read-out: IC50 against mGluR2; cited from earlier work.
Assay [1] deals with Group I or Group III receptors. The note with it: at sub-mM concentrations; cited from earlier work.
The test system of assay [2] is human neural stem cells (hNSCs).
Excerpt: (§1) Mitogen-free test media with a positive control for neuronal differentiation was used along with basal media without growth factors as a negative control.
(§2) A positive control for neuronal differentiation was used along with basal media without growth factors as a negative control.
(§3) Human neural stem cells (hNSCs) were isolated and grown in monolayer culture, plated, treated with varying concentrations of rosiglitazone and/or N-acetylcysteine (test compounds), and stained with TUJ-1 antibody, as described above. Mitogen-free test media with a positive control for neuronal differentiation was used along with basal media without growth factors as a negative control.
(§4) Human neural stem cells (hNSCs) were isolated and grown in monolayer culture, plated, treated with varying concentrations of ciglitazone and/or N-acetylcysteine (test compounds), and stained with TUJ-1 antibody, as described above. Mitogen-free test media with a positive control for neuronal differentiation was used along with basal media without growth factors as a negative control.
(§5) Human neural stem cells (hNSCs) were isolated and grown in monolayer culture, plated, treated with varying concentrations of pioglitazone and/or N-acetylcysteine (test compounds), and stained with TUJ-1 antibody, as described above. Mitogen-free test media with a positive control for neuronal differentiation was used along with basal media without growth factors as a negative control.
(§6) Human neural stem cells (hNSCs) were isolated and grown in monolayer culture, plated, treated with varying concentrations of troglitazone and/or N-acetylcysteine (test compounds), and stained with TUJ-1 antibody, as described above. Mitogen-free test media with a positive control for neuronal differentiation was used along with basal media without growth factors as a negative control.
(§7) The presence of synergy was determined by use of a combination index (CI). […] The CI is a quantitative measure of the nature of drug interactions, comparing the EC50's of two compounds, when each is assayed alone, to the EC50 of each compound when assayed in combination. The combination index (CI) is equal to the following formula:
(§8) where C1 and C2 are the concentrations of a first and a second compound, respectively, resulting in 50% activity in neuronal differentiation when assayed in combination; and IC1 and IC2 are the concentrations of each compound resulting in 50% activity when assayed independently.
The subject of another assay is mGlu7 and mGlu8. The note with it: at higher concentrations (e.g., above 1 μM); cited from earlier work.
Assay [3] relates to KA, AMPA, and NMDA iGlu receptors. The note with it: cited from earlier work.
For the next assay, the target named is human mGlu2 receptors (Homo sapiens, UniProt Q14416). The note with it: low nanomolar range, e.g. below about 10 nM, or below about 5 nM; read-out: EC50 against human mGlu2 receptors in vitro; cited from earlier work.
Another assay has as its target human mGlu3 receptors (Homo sapiens, UniProt Q14832). Particulars: low nanomolar range, e.g. below about 10 nM, or below about 5 nM; read-out: EC50 against human mGlu3 receptors in vitro; cited from earlier work.
For assay [4], the system named is human neural stem cells (hNSCs). Briefly: Neuronal differentiation of human neural stem cells (TUJ-1 staining). Particulars: read-out: EC50, neuronal differentiation, extrapolated, agent alone, extrapolated based on the data.
Excerpt: as §1, §2, §3, §4, §5, §6, §7, §8

Sequence of mGluR3 (Q14832 23-879): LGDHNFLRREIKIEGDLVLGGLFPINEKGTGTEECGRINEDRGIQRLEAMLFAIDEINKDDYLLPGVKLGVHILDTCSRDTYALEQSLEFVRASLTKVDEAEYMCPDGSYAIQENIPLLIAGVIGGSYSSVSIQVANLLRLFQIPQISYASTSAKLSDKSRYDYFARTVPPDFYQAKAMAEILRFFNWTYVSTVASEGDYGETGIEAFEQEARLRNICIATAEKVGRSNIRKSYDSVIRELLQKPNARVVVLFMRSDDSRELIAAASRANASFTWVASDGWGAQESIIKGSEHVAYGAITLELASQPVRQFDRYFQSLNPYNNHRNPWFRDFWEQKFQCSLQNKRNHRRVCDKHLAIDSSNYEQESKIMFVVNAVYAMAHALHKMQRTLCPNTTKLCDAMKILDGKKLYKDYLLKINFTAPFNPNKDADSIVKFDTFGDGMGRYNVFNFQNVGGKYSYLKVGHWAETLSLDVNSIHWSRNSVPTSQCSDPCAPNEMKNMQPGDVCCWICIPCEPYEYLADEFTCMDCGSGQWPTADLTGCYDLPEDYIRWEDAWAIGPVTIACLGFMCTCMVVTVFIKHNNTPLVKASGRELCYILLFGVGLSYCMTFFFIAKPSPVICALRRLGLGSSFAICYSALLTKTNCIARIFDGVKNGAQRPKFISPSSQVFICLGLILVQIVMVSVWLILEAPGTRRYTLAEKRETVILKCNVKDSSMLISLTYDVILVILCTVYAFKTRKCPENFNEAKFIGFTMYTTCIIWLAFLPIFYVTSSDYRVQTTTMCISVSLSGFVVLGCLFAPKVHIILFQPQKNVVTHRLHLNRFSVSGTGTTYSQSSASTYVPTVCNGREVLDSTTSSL
Sequence of human mGlu3 receptors (Q14832 23-879): as above
Sequence of human mGlu2 receptors (Q14416 19-872): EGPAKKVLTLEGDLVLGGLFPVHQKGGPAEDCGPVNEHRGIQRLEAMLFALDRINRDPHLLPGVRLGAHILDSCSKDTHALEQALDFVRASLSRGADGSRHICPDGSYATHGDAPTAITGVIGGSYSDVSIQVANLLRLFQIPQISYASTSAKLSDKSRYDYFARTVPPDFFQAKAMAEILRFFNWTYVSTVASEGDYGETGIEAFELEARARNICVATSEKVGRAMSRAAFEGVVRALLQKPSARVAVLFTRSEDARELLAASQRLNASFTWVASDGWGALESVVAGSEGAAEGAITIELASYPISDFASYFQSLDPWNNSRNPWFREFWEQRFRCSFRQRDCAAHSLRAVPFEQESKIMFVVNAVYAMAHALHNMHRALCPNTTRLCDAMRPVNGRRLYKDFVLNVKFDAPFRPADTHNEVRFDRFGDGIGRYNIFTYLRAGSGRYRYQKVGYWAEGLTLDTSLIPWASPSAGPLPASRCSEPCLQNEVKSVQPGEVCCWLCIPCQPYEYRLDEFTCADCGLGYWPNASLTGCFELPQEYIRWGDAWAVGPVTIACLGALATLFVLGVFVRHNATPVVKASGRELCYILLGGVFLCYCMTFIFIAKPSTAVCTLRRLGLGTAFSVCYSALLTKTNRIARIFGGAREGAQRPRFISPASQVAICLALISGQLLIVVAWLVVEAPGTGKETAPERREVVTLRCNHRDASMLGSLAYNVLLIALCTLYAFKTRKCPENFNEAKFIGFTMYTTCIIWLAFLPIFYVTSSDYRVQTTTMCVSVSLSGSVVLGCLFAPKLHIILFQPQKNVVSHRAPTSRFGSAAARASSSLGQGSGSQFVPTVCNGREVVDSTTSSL
Sequence of mGluR2 (Q14416 19-872): as above

Turning to `NC1(C(=O)O)CCc2cc(P(=O)(O)O)ccc21` (racemic) [APICA, (RS)-1-amino-5-phosphonoindan-1-carboxylic acid], the IC50 on mGluR3 and on mGluR2 was roughly 30 µM in each case. In [1], the “activity against Group I or Group III receptors” value is “no appreciable activity”.
`CCc1ccc(CCOc2ccc(CC3SC(=O)NC3=O)cc2)nc1` (racemic) [pioglitazone, (RS)-5-(4-[2-(5-ethylpyridin-2-yl)ethoxy]benzyl)-thiazolidine-2,4-dione]: in assay [2], the EC50 was 0.348 µM.
In turn, `CN(CCOc1ccc(CC2SC(=O)NC2=O)cc1)c1ccccn1` (racemic) [rosiglitazone, (RS)-5-[4-(2-[methyl(pyridin-2-yl)amino]ethoxy)-benzyl]thiazolidine-2,4-dione] yielded a half-maximal effective concentration (EC50) in [2] of 1.8 µM.
Regarding `N[C@](CC1c2ccccc2Oc2ccccc21)(C(=O)O)[C@H]1C[C@@H]1C(=O)O` [LY341495, (2S)-2-amino-2-(1S,2S-2-carboxycycloprop-1-yl)-3-(xanth-9-yl) propanoic acid], the “activity against mGlu7 and mGlu8” value in the assay on mGlu7 and mGlu8 was “antagonist activity”. For the same compound, the “activity against KA, AMPA, and NMDA iGlu receptors” value in [3] was “substantially inactive”.
`N[C@@]1(C(=O)O)CO[C@H]2[C@H](C(=O)O)[C@H]21` [LY379268, (−)-2-oxa-4-aminobicyclohexane-4,6-dicarboxylic acid]: the concentration giving a half-maximal response (EC50) at human mGlu2 receptors and on human mGlu3 receptors was less than 0.01 µM in each case.
As for `CC(=O)N[C@@H](CS)C(=O)O` [NAC, N-acetyl-L-cysteine], the EC50 in assay [2] was determined as 5.55 µM.
Regarding `O=C(Nc1ccncc1)c1cc([N+](=O)[O-])ccc1Cl` [T0070907], in assay [4], the EC50 is 5.4 µM.
`CC1(COc2ccc(CC3SC(=O)NC3=O)cc2)CCCCC1` (stereo not shown) [ciglitazone, 5-{4-[(1-methylcyclohexyl)methoxy]benzyl}-1,3-thiazolidine-2,4-dione] yielded an EC50 in [2] of 0.1 µM.
As for `CC(C)(Oc1ccc(C2CC2(Cl)Cl)cc1)C(=O)O` (stereo not shown) [ciprofibrate], a half-maximal effect in [2] (EC50) was put at 2.1 µM.
As to `CCOC(=O)C(C)(C)Oc1ccc(Cl)cc1` [clofibrate], the concentration giving a half-maximal response (EC50) in assay [2] amounted to 2.6 µM.
In assay [2], `Nc1c2c(nc3ccccc13)CCCC2` [tacrine] had an EC50 of 12.6 µM.
For the compound `Cc1c(C)c2c(c(C)c1O)CCC(C)(COc1ccc(CC3SC(=O)NC3=O)cc1)O2` (stereo not shown) [troglitazone, 5-(4-[(6-hydroxy-2,5,7,8-tetramethylchroman-2-yl)methoxy]benzyl)thiazolidine-2,4-dione], the concentration for a half-maximal effect (EC50) in assay [2] turned out to be 10 µM.
